The source of these data is US20060117411A1, “Enhancing plant pathogen resistance via increasing BiP levels” (priority 1998, published 2006).

Assay [1] relates to PR1 mRNA. Put plainly: SA spraying of tobacco plants, Northern blot of PR1 mRNA. The class given is in vivo, Nicotiana tabacum. On the procedure:
It has been shown that SA is involved in the induction of PR genes (reviewed by Malamy and Klessig, 1992) and that this signal molecule also induces the expression of ER chaperones (Denecke et al, 1995). We wanted to investigate whether ER chaperone induction is a consequence of the high synthesis rates of PR genes and used BiP as a model system. Tobacco plants were sprayed with SA (5 mM) and the exact timing of the SA-mediated induction of PR-gene PRI was compared to that of BiP. PR1 was chosen as a representative marker for SA-mediated induction of PR genes as its response to SA is faster and more pronounced than that of acidic chitinase, basic chitinase and basic β-1.3 glucanase (Vidal et al, 1997). […] In contrast SA-induced transcription of PR1 starts only after 6-8 hours and continues to accumulate upto 16 hours after treatment. At this time-point, BiP mRNA levels start to decrease again. We have shown previously that PR1 continuous to accumulate until 48 hours after SA treatment using the same experimental system (Vidal et al, 1997). […] BiP protein levels were also shown to increase (FIG. 7B), with a significant increase noticeable after 4-6 hours of induction.
To investigate further similarities and differences in the SA-mediated induction of BiP and PR genes, we tested if the presence of light is required for the induction. The rationale for this experiment was derived from the observation that SA inhibits catalase, resulting in an increase of active oxygen species in the plant, which would then induce PR genes such as PR1 (Chen et al, 1993). […]
We have shown that the SA-induced expression of PR1 is inhibited in a concentration dependent fashion by the presence of Erwinia carotovora culture filtrate containing cell wall-degrading enzymes (Vidal et al, 1997). […] Total RNA was extracted and the expression of chaperones was determined in relation to PR1. […]

Assay [2] deals with BiP protein levels. The experiment in a line: SA spraying of tobacco plants, protein gel blot of BiP. The class given is in vivo, Nicotiana tabacum. The conditions noted are these: sprayed with SA 5 mM. On the procedure:
It has been shown that SA is involved in the induction of PR genes (reviewed by Malamy and Klessig, 1992) and that this signal molecule also induces the expression of ER chaperones (Denecke et al, 1995). We wanted to investigate whether ER chaperone induction is a consequence of the high synthesis rates of PR genes and used BiP as a model system. Tobacco plants were sprayed with SA (5 mM) and the exact timing of the SA-mediated induction of PR-gene PRI was compared to that of BiP. PR1 was chosen as a representative marker for SA-mediated induction of PR genes as its response to SA is faster and more pronounced than that of acidic chitinase, basic chitinase and basic β-1.3 glucanase (Vidal et al, 1997). […] In contrast SA-induced transcription of PR1 starts only after 6-8 hours and continues to accumulate upto 16 hours after treatment. At this time-point, BiP mRNA levels start to decrease again. […]
Fully expanded leaves were collected and quickly frozen in liquid nitrogen. […] Protein concentrations were determined using Bio-Rad protein assay reagent
Proteins in SDS-polyacrylamide gels were transferred onto a nitrocellulose membrane and then blocked with PBS, 0.5% Tween 20, and 5% milk powder for 1 hr. […] Detection of antigen-antibody complexes was performed with enhanced chemiluminescence (ECL, Amersham Corp), and the images were recorded on film.

For `O=C(O)c1ccccc1O` [SA, Salicylic Acid], in assay [1] (SA 5 mM, 6 and 16 hours, dark vs light), the “PR1 induction during SA-treatment in the absence of light” value is “almost completely abolished”. In assay [1] (sprayed with SA 5 mM), the “time after which SA-induced transcription of PR1 starts” value is 6 to 8 h and the “time up to which PR1 continues to accumulate” value is at most 16 h. Moreover, the “time of induction after which a significant increase of BiP protein levels is noticeable” value in assay [2] is 4 to 6 h.
